Results from patent US10703736B2, “Configurational stereoisomer of bromadiolone, composition and rodenticide bait comprising same, and method for controlling target rodent pests” (priority 2015, dated 2020).
Entries after “also recorded” stand apart in the source; their conditions may differ.

Experiments:
[1] = type: in vivo, rat; details: Sprague-Dawley rats, mixture D1,2 56% / D3,4 44%, about 13 mg bromadiolone per kg per os, liver on D1, D3, D7; FIG. 2
Experimental: (§1) About 0.525 g (+0.025 g) of rat liver is weighed out accurately and placed in a 50 mL polypropylene tube. 10 mL of acetone are added and the suspension is homogenized using an Ultra-Turrax® homogenizer/disperser for a time of about 30 seconds. The homogenizer/disperser shaft is rinsed with hot water and then twice with 20 mL of acetone in a polypropylene tube. The homogenate is centrifuged for 5 minutes at a centrifugation speed of 3000 rpm (revolutions per minute). The supernatant is collected and transferred into a test tube. The sample is subjected to evaporation under a stream of nitrogen (N2) at a temperature of 40° C. so as to form a dry extract.
(§2) 1 mL of acetonitrile is added to the tube containing the dry extract so as to dissolve it. The acetonitrile solution is washed twice successively with 1 mL of hexane. […]
On D1 (D+1), D3 (D+3) and D7 (D+7) after tube feeding, four rats anaesthetized beforehand with isoflurane are euthanized, the liver of the euthanized rats is removed, the bromadiolone is then extracted from the liver and the amount of each of the configurational stereoisomers of bromadiolone is assayed by high-pressure liquid chromatography analysis on a chiral column as described above. The area under the peaks of the chromatogram obtained is measured and each configurational stereoisomer of bromadiolone is quantified by comparison with a calibration curve.

[2] = system: male laboratory rats (OFA, Sprague-Dawley 200 g); assay: Anticoagulant power of each configurational stereoisomer: coagulation time (Quick time) of plasma of tube-fed rats; type: in vivo; details: 1.5 mg of enantiomer per kilogram of rat by tube feeding on D0; blood on D1, D3, D7, D14; FIG. 3
Experimental: The following are administered to male laboratory rats (OFA, Sprague-Dawley 200 g) by tube feeding on D0: a composition comprising enantiomer E1 in a proportion of 1.5 mg of said enantiomer E1 per kilogram of rat; or a composition comprising enantiomer E2 in a proportion of 1.5 mg of said enantiomer E2 per kilogram of rat; or a composition comprising enantiomer E3 in a proportion of 1.5 mg of said enantiomer E3 per kilogram of rat; or a composition comprising enantiomer E4 in a proportion of 1.5 mg of said enantiomer E4 per kilogram of rat.
On these rats, blood is collected on D1, D3, D7 and D14 and measurement of the coagulation time (Quick time, expressed in seconds) of the plasma is performed using the “Neoplastine CI Determination of Prothrombin Time” kit (Diagnostica Stago, Asnibre, France) by measurement on a Thrombotimer Option 2 Plus machine (Behnk Electronik, Norderstedt, Germany).

[3] = Hepatic persistence of each configurational stereoisomer in rats tube-fed with a single stereoisomer; type: in vivo, rat; details: liver of rats tube-fed with the single enantiomer at 1.5 mg per kilogram; FIG. 4
Experimental: as §1, §2
The liver of the rats treated above is removed for the purposes of comparative analysis of the anticoagulant power of the configurational stereoisomers of bromadiolone, the bromadiolone is then extracted from the liver and the amount of each of the configurational stereoisomers of bromadiolone is assayed by high-pressure liquid chromatography analysis on a chiral column as described above. The area under the peaks of the chromatogram obtained is measured and each configurational stereoisomer of bromadiolone is quantified by comparison with a calibration curve. […]

Compound | persistence in rat liver (hepatic concentration) [1] | anticoagulant effect / anticoagulant activity (coagulation time, Quick time) [2] | hepatic persistence of each enantiomer [3]
O=c1oc2ccccc2c(O)c1C(CC(O)c1ccc(-c2ccc(Br)cc2)cc1)c1ccccc1 (single isomer, unassigned) [diastereoisomer D1,2, 3-[3-(4′-bromo[1,1′-biphenyl]-4-yl)-3-hydroxy-1-phenylpropyl]-4-hydroxy-2H-1-benzopyran-2-one] | the more persistent in the liver of target rodents | – | –
O=c1oc2ccccc2c(O)c1C(CC(O)c1ccc(-c2ccc(Br)cc2)cc1)c1ccccc1 (single isomer, unassigned) [enantiomer E1, 3-[3-(4′-bromo[1,1′-biphenyl]-4-yl)-3-hydroxy-1-phenylpropyl]-4-hydroxy-2H-1-benzopyran-2-one] | longest persistence in rat liver of the four enantiomers | sufficient to maintain an anticoagulant effect up to D7; also recorded: higher anticoagulant activity than the anticoagulant activity of said enantiomer E2 and also higher than the anticoagulant activities of said two enantiomers of said diastereoisomer D3,4 | highest hepatic persistence among the bromadiolone enantiomers; also recorded: higher than the persistence in the liver of target rodent pests of said enantiomer E2 and higher than the persistence in the liver of target rodent pests of each enantiomer of said diastereoisomer D3,4
